The source of these data is patent publication US8975086B2, “Method for treating or preventing bladder cancer using the DEPDC1 polypeptide” (OncoTherapy Science, Inc., priority 2008, dated 2015).

Where a SMILES comes first, the peptide text is derived from it.

The test system of one series is DLG1. As to the kind of experiment: Quantitative RT-PCR of downstream gene DLG1 in UM-UC-3 cells. The conditions noted are these: UM-UC-3 cells transfected with siRNA, compared with siEGFP. The class given is cell-based, human. The method, then:
(§1) UM-UC-3 cells were transfected with siRNA against DEPDC1 (si-DEPDC1), ZNF224 (si-ZNF224-2) or EGFP (control siRNA). The target sequences of the synthetic oligo-duplex for siRNA against DEPDC1 (Sigma Aldrich) were as follows: si-DEPDC1,5′-CCAAAGUUCCGUAGUCUAA-3′(SEQ ID NO: 75), ZNF224 (si-ZNF224-2) or EGFP as described in “RNA interference assay” section.
(§2) Total RNAs were extracted from each sample at 12 hours and 24 hours after the transfection, labeled with Cy5 (for si-DEPDC1- and si-ZNF224-2-transfected cells) or Cy3 (for si-EGFP-transfected cells), and subjected to cohybridization onto cDNA microarrayslides containing 36468 cDNA or ESTs as described previously (Takata R, et al., Clin Cancer Res 2005 11:2625-36). After normalization of the data, it was excluded genes from further analysis when Cy5 and Cy3 dyes yielded signals intensities lower than the cut-off value. For other genes, the Cy5/Cy3 ratio was calculated using the raw data of each samples. […] Validation of candidate downstream genes of both DEPDC1 and ZNF224 was carried out with quantitative RT-PCR analysis using the SYBR green dye (Rhoche) and the same amplified RNAs from UM-UC-3 cells used for cDNA microarray experiments, with each gene-specific primer as follows;
(§3) All experiments were performed in duplicate. The calculated quantity of the target gene for each sample was then divided by the average calculated quantity of beta 2-microglobulin (beta 2-MG) corresponding to each sample to give a relative expression of the target gene for each sample

In the next series the test system is A20 (TNFAIP3). As to the kind of experiment: Quantitative RT-PCR of downstream gene A20 in UM-UC-3 cells. In kind it is cell-based, human. The conditions noted are these: UM-UC-3 cells transfected with siRNA, compared with siEGFP. The method, then:
as §1
as §2, with “After normalization of the data, it was excluded genes from further analysis when Cy5 and Cy3 dyes yielded signals intensities lower than the cut-off value.” left out
as §3

The subject of a further series is ZNF224 transcript. The series is described as follows: Semiquantitative RT-PCR of knockdown effect of ZNF224 siRNA expression vectors in UM-UC-3 cells. To be noted: compared with si-EGFP control. The class given is cell-based, human. The procedure: It has been previously established a vector-based RNA interference (RNAi) system, psiU6BX3.0 that was designed to express small interfering RNAs (siRNA) in mammalian cells (Shimokawa T, et al., Cancer Res 2003 63:6116-20). Plasmids designed to express siRNA to ZNF224 were prepared by cloning of double-stranded oligonucleotides into the BbsI site of psiU6BX vectors. The target sequences of the synthetic oligonucleotides for RNAi were as follows:
si-ZNF224#2: 5′-CCGCAGGAACACATCAAGA-3′ (SEQ ID NO: 10) for the ZNF224-specific sequence. DNA sequences of all constructs were confirmed by DNA sequencing. […] To evaluate the knockdown effect of siRNAs by semi-quantitative RT-PCR with specific primers (see below), total RNAs were extracted from the transfected cells after 4-day incubation with neomycin (Geneticin, Invitrogen). […]
5′-[…]-3′ (SEQ ID NO: 13) and 5′-[…]-3′ (SEQ ID NO: 14) for GAPDH as a quantitative control. The transfected UM-UC-3 cells were cultured for 21 or 14 days in the presence of 1.0 mg/ml of neomycin, and the number of colonies were counted by Giemsa staining. Viability of UM-UC-3 cells was evaluated by 3-(4,5-dimethylthiazol-2-yl)-2,5-diphenyltetrazolium bromide (MTT) assay at 14 days after the treatment of neomycin with cell counting kit-8 according to manufacturer's recommendation (Wako, Osaka, Japan). […]

Series [1] relates to UM-UC-3 cells. The series is described as follows: MTT and colony-formation assays of UM-UC-3 cells transfected with siRNA expression vectors. The conditions noted are these: UM-UC-3 cells transfected with siRNA expression vector, neomycin selection. The class given is cell-based, human. The text has this:
si-ZNF224#2: 5′-CCGCAGGAACACATCAAGA-3′ (SEQ ID NO: 10) for the ZNF224-specific sequence. DNA sequences of all constructs were confirmed by DNA sequencing. Eight-micrograms each of siRNA-expression vector were transfected into UM-UC-3 cells (1×10^6 cells per 10 cm-dish), respectively, using FuGENE6 transfection reagent (Roche) according to the supplier's recommendations. To evaluate the knockdown effect of siRNAs by semi-quantitative RT-PCR with specific primers (see below), total RNAs were extracted from the transfected cells after 4-day incubation with neomycin (Geneticin, Invitrogen). The specific primer sets for RT-PCR are as follows; 5′-[…]-3′ (SEQ ID NO: 11) and 5′-[…]-3′ (SEQ ID NO: 12) for ZNF224;
5′-[…]-3′ (SEQ ID NO: 13) and 5′-[…]-3′ (SEQ ID NO: 14) for GAPDH as a quantitative control. The transfected UM-UC-3 cells were cultured for 21 or 14 days in the presence of 1.0 mg/ml of neomycin, and the number of colonies were counted by Giemsa staining. Viability of UM-UC-3 cells was evaluated by 3-(4,5-dimethylthiazol-2-yl)-2,5-diphenyltetrazolium bromide (MTT) assay at 14 days after the treatment of neomycin with cell counting kit-8 according to manufacturer's recommendation (Wako, Osaka, Japan). Absorbance at 570 nm wavelength was measured with a Microplate Reader 550 (Bio-Rad, Hercules, Calif.). These experiments were performed in triplicate.

The subject of the next series is NHDF-Ad cells. The series is described as follows: MTT assay of cell viability of normal human dermal fibroblasts treated with peptide. The conditions noted are these: DEPDC1 and ZNF224 hardly detectable. The class given is cell-based. The procedure:
(§4) UM-UC-3 and normal human dermal fibroblast-derived NHDF-Ad cell lines were incubated with the 11R peptides at the concentration of 0, 1, 2, or 3 micromol/L for 5 days. Each peptide was added at every 24 hours at the appropriate concentrations and the viability of cells was evaluated by MTT assay at every day after the treatment.
(§5) To examine the effect of DEPDC1611-628 peptide on cell growth of UM-UC-3 and NHDF cells, the cells were incubated with the DEPDC1611-628 or scramble peptides at the concentration of 0, 1, 2, or 3 micro M for 5 days, respectively. Each peptide was added at every 24 hours at the appropriate concentrations and the viability of cells was evaluated by MTT assay every day. Absorbance at 570 nm wavelength was measured with a Microplate Reader 550 (Bio-Rad). These experiments were performed in triplicate.

The subject of series [2] is UM-UC-3 cells. The series is described as follows: MTT assay of cell viability of UM-UC-3 bladder cancer cells treated with 11R peptides. In kind it is cell-based, human. To be noted: UM-UC-3 cells; peptide 1, 2 or 3 micro M added every 24 hours for 5 days. The method, then: as §4, §5
(Formazan colour is commonly taken as a measure of viable cells.)

A further series deals with T1, DEPDC1-ZNF224 complex (Homo sapiens, UniProt Q9NZL3, H562R/M118V).
T1 construct: expressed in transfected cells; host or cells: COS7 cells, transiently co-transfected (pCAGGS-type vectors)
T1 sequence (Q9NZL3 whole entry M118V/H562R, one chain of several): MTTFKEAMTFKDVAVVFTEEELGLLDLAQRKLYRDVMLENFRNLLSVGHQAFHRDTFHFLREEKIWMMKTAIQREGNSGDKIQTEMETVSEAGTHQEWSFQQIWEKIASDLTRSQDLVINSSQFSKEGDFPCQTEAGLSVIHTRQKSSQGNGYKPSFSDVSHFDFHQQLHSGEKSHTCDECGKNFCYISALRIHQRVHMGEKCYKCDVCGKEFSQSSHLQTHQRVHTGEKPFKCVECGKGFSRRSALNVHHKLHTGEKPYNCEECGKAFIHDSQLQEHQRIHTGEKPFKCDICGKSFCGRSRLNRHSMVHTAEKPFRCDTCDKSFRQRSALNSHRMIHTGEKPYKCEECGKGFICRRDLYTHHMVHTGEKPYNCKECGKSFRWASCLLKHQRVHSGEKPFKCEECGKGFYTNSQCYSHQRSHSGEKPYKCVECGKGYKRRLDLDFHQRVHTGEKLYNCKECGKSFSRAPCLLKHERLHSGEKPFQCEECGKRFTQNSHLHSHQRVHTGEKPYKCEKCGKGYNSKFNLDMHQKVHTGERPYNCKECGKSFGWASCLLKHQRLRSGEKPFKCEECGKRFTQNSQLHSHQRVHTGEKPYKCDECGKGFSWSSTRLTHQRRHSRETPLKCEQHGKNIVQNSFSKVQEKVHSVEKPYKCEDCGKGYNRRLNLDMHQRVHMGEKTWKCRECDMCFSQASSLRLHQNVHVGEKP
The series is described as follows: Immunoprecipitation of exogenous DEPDC1-HA and ZNF224-FLAG complex in peptide-treated COS7 cells. The conditions noted are these: for complex formation between exogenously expressed DEPDC1-HA and ZNF224-Flag (immunoprecipitation): six peptides added 6 hours after transfection, immunoprecipitation fifteen hours later. In kind it is cell-based. The procedure: To confirm the interaction between DEPDC1 and ZNF224 in bladder cancer cells and identify the ZNF224-binding region in DEPDC1, the immunoprecipitation experiment was carried out as follows. First, it was confirmed interaction between endogenous DEPDC1 and exogenous ZNF224 by immunoprecipitation experiments using anti-DEPDC1 polyclonal antibody for immunoprecipitation and anti-FLAGM2 antibody (Amersham) for immunoblotting. To further determine the ZNF224-binding region in DEPDC1, it was cloned six partial constructs of DEPDC1 (DEPDC11-147, DEPDC1141-300, DEPDC1177-597, DEPDC1300-669, DEPDC1587-740 and DEPDC1654-811) into appropriate sites of COOH-terminal HA-tagged pCAGGS vector. The nucleotide sequence of each clones were determined with an ABI Prism 3700 DNA sequencer (Applied Biosystems, Foster City, Calif.), using each primer. Cell extracts from Cos7 cell line, transfected with each of plasmids expressing one of these six partial segments of DEPDC1, were precleared by incubation at 4 degrees C. for 1 hour with 100 micro 1 of protein G-agarose beads in final volumes of 2 mL of immunoprecipitation buffer (0.5% NP40, 50 mmol/L Tris-HCl, 150 mmol/L NaCl) in the presence of proteinase inhibitor. After centrifugation at 1,000 rpm for 5 minutes at 4 degrees C., the supernatants were incubated at 4 degrees C. with anti-HA rat for 1 hours. After the beads were collected from each sample by centrifugation at 5,000 rpm for 2 minutes and washed six times with 1 mL of immunoprecipitation buffer, the washed beads were re-suspended in 50 uL of Laemmli sample buffer and boiled for 3 minutes before the proteins were separated on 10% SDS-PAGE gels. Immunoblot was done using anti-HA rat antibody and anti-FLAGM2 monoclonal antibody, respectively (Sigma-Aldrich Co., St. Louis, Mo.).
To examine the effect of these polyarginine (11R)-linked peptides on inhibition of the DEPDC1-ZNF224 complex formation, they were co-transfected with DEPDC1 and ZNF224 constructs into COS7 cells. […] Immunoprecipitation were performed according to methods as described in “Identification of the ZNF224-binding regions in DEPDC1 protein” section.

In the case of 5′-CCAAAGUUCCGUAGUCUAA-3′ [si-DEPDC1], the “DLG1 transcript (quantitative RT-PCR)” value in the series with DLG1 is “time-dependent increase”. Also, in the series on A20 (TNFAIP3), the “A20 transcript (quantitative RT-PCR)” value is recorded as “time-dependent increase”. As to 5′-CCGATTTGGATGATGAAGA-3′ [si-ZNF224-1], the “amount of ZNF224 transcript (knockdown effect)” value in the series with ZNF224 transcript was “significantly suppressed”. Besides, the “growth of UM-UC-3 cell (MTT and colony-formation assays)” value with UM-UC-3 cells [1] was “marked suppression growth”.

On to 5′-CCGCAGGAACACATCAAGA-3′ [si-ZNF224-2], for which, in the series on ZNF224 transcript, the “amount of ZNF224 transcript (knockdown effect)” value is given as “significantly suppressed”. Moreover, the “growth of UM-UC-3 cell (MTT and colony-formation assays)” value in the series on UM-UC-3 cells [1] is reported as “marked suppression growth”. Moreover, the “DLG1 transcript (quantitative RT-PCR)” value with DLG1 is “time-dependent increase”. Moreover, the “A20 transcript (quantitative RT-PCR)” value in the series with A20 (TNFAIP3) was “time-dependent increase”.

Regarding `CC[C@H](C)[C@H](NC(=O)[C@H](CCSC)NC(=O)[C@H](CCCNC(=N)N)NC(=O)[C@H](CCSC)NC(=O)[C@H](CC(C)C)NC(=O)[C@H](CC(C)C)NC(=O)[C@H](CCC(N)=O)NC(=O)[C@H](CC(C)C)NC(=O)[C@H](CCCCN)NC(=O)[C@H](CCCNC(=N)N)NC(=O)[C@H](CCCNC(=N)N)NC(=O)[C@H](CC(N)=O)NC(=O)[C@@H]1CCCN1C(=O)[C@@H]1CCCN1C(=O)CNC(=O)CNC(=O)CNC(=O)[C@H](CCCNC(=N)N)NC(=O)[C@H](CCCNC(=N)N)NC(=O)[C@H](CCCNC(=N)N)NC(=O)[C@H](CCCNC(=N)N)NC(=O)[C@H](CCCNC(=N)N)NC(=O)[C@H](CCCNC(=N)N)NC(=O)[C@H](CCCNC(=N)N)NC(=O)[C@H](CCCNC(=N)N)NC(=O)[C@H](CCCNC(=N)N)NC(=O)[C@H](CCCNC(=N)N)NC(=O)[C@@H](N)CCCNC(=N)N)C(=O)N[C@@H](CO)C(=O)N[C@@H](CCCNC(=N)N)C(=O)N[C@@H](CCSC)C(=O)N[C@@H](CO)C(=O)O` [11R-DEP611-628, RRRRRRRRRRR-GGG-PPNRRKLQLLMRMISRMS] (H-RRRRRRRRRRRGGGPPNRRKLQLLMRMISRMS-OH), the “cell viability measured by MTT assay” value is recorded as “no significant effect on cell viability” with NHDF-Ad cells and “no off-target effect” with NHDF-Ad cells (listed as DEPDC1611-628). Turning to “RRRRRRRRRRR-GGG-AIDALQLCCLLLPPPNRR (RRRRRRRRRRRGGGAIDALQLCCLLLPPPNRR; An artificially synthesised dominant negative peptide) [11R-DEP598-615, 11R-linked DEPDC1 codons 598-615 peptide]”, the “cell viability measured by MTT assay” value with UM-UC-3 cells [2] is “moderate suppress in cell viability in dose-dependent manner”. In addition, the “complex formation of DEPDC1-HA and ZNF224-FLAG (immunoprecipitation)” value with DEPDC1-ZNF224 complex (four peptides at 3 micro M added 6 hours after transfection, twenty-four hours later) is on record as “moderate effect”. In addition, the “complex formation between exogenously expressed DEPDC1-HA and ZNF224-Flag (immunoprecipitation)” value with DEPDC1-ZNF224 complex was “slight inhibition”. Take “RRRRRRRRRRR-GGG-ISRMSQNVDMPKLHDAMG (RRRRRRRRRRRGGGISRMSQNVDMPKLHDAMG; An artificially synthesised dominant negative peptide) [11R-DEP624-641, 11R-linked DEPDC1 codons 624-641 peptide]”: in the series with DEPDC1-ZNF224 complex, the “complex formation between exogenously expressed DEPDC1-HA and ZNF224-Flag (immunoprecipitation)” value was “no inhibition”. On the same count and under the same terms, the result for “RRRRRRRRRRR-GGG-LHDAMGTRSLMIHTFSRC (RRRRRRRRRRRGGGLHDAMGTRSLMIHTFSRC; An artificially synthesised dominant negative peptide) [11R-DEP636-653, 11R-linked DEPDC1 codons 636-653 peptide]” reads “no inhibition”; that for “RRRRRRRRRRR-GGG-NGEKIKHEIINEDQENAI (RRRRRRRRRRRGGGNGEKIKHEIINEDQENAI; An artificially synthesised dominant negative peptide) [11R-DEP159-176, 11R-linked DEPDC1 codons 159-176 peptide]”, “no inhibition”; that for “RRRRRRRRRRR-GGG-PKRHGLHLSQENGEKIKHE (RRRRRRRRRRRGGGPKRHGLHLSQENGEKIKHE; An artificially synthesised dominant negative peptide) [11R-DEP148-166, 11R-linked DEPDC1 codons 148-166 peptide]”, “no inhibition”.
